Literature values as cited in paper PMC11915035, “Characterization of [^3H]Propionylated Human Peptide YY-A New Probe for Neuropeptide Y Y2 Receptor Binding Studies” (ACS Pharmacology & Translational Science, 2025).
Like-named read-outs stand apart in the source and are kept apart here.

Legend:
pY2R = conditions: COS-7 pY2R; 50 mM HEPES, 0 mM Na+; species of peptide not indicated; ref Rose et al.[2]
Description: (§1) Table 1 Reported Peptidic Radioligands Used for Y2R Binding Studies | column: Kd [nM]

[1] = biological target: calf hippocampus membrane preparation; conditions: Krebs–Ringer/20 mM HEPES, 137 mM Na+; species of peptide not indicated; ref Czerwiec et al.[34]
Description: as §1

Y1R, Y2R, Y4R, Y5R = conditions: ref 2−4
Description: Activation of all four receptor subtypes is induced by the homologous neuropeptides NPY, peptide YY (PYY), and pancreatic polypeptide (PP).[1]

[2] = biological target: rat hippocampal membrane preparation; conditions: KRP buffer, […] Na+; species of peptide not indicated; ref Dumont et al.[25]
Description: as §1

Y2R = conditions: read-out: literature IC50, sodium-containing buffer

[^125I]NPY: iodine-125 labeled derivative of NPY; species human or not indicated
Kd (pY2R): 0.58 nM

N-[^3H]propionyl-NPY: tritiated NPY derivative, most likely [^3H]propionylated at the ε-amino group of Lys^4
Kd [1]: 0.7 nM

pancreatic polypeptide [PP]
YR binding preference (Y1R, Y2R, Y4R, Y5R): clear preference for Y4R over the other YRs

[^125I]PYY (3–36): iodine-125 labeled derivative of PYY
Kd [2]: 0.013 nM

[^125I]PYY: iodine-125 labeled derivative of PYY; species porcine or not indicated
Kd (pY2R): 0.27 nM

CCN(CC)C(=O)C(c1ccccc1)N1CCN(c2ccc(NC(=O)c3ccccc3-c3cccnc3)cc2F)CC1 (stereo not shown) [JNJ31020028, N-(4–4-[2-(diethylamino)-2-oxo-1-phenylethyl]piperazin-1-yl-3-fluorophenyl)-2-pyridin-3-ylbenzamide]
IC50 (Y2R; ref Shoblock et al.[39]): 8.5 nM
IC50 (Y2R; ref Swanson et al.[59]): 6 nM
